Our source for the IC50 values is patent publication US7115642B2, “Substituted diphenyl isoxazoles, pyrazoles and oxadiazoles useful for treating HCV infection” (priority 2003, dated 2006).

Where two headings read alike, the source gives them in different places.

The test system of data set [1] is HCV nonstructural protein NS5A or NS3 in 9–13 replicon cells. Description: Quantitative Western blot assay. It is filed as cell-based, Hepatitis C virus. The note with it: 9–13 replicon cells, NS5A or NS3 Western blot; read-out: Western IC50. The protocol: Alternatively, the inhibitory activity of the compounds can be confirmed using a quantitative Western immunoblot assay utilizing antibodies specific for HCV non-structural proteins, such as NS3, NS4A NS5A and NS5B. In one embodiment of this assay, replicon cells are treated with varying concentrations of test compound to determine the concentration of test compound that yields a 50% reduction in the amount of a non-structural protein produced as compared to a control sample (IC50). A single non-structural protein may be quantified or multiple non-structural proteins may be quantified. Antibodies suitable for carrying out such immunoblot assays are available commercially (e.g., from BIODESIGN International, Saco, Me.).
Certain exemplary compounds of the invention were also tested for their ability to inhibit HCV replication using a quantitative Western blot analysis with antibodies specific for the HCV nonstructural protein NS5A or NS3. Actively dividing 9–13 replicon cells were seeded into Swell plates at a density of 1×10^5 cells/well in a volume of 2 ml/well and incubated at 37° C. and 5% CO2 for 24 hours. Various concentrations of test compounds (in a volume of 10 ul) were added to the wells and the cells incubated for another 48 hours. Protein samples were prepared from the cultured cells, resolved on a SDS-PAGE gel and transferred to a nitrocellulose membrane. The membrane was blocked with 5% non-fat milk in PBS for 1 hour at room temperature. Primary antibody (anti NS5A antibody; BIODESIGN International, Saco, Me. or anti NS3 antibody, Rigel) incubation was performed for 1 hour at room temperature, after which the membrane was washed 3 times (for 15 min per time) with PBST (PBS plus 0.1% Tween 20). Horseradish peroxidase conjugated secondary antibody incubation was performed for 1 hour at room temperature and the membrane was washed 3 times (for 15 min per time) with PBST. The membrane was then soaked in substrate solution (Pierce) and exposed to a film or quantified using an imager. In this assay, the amount of test compound that yielded a 50% reduction in the amount of NS5A or NS3 protein translated as compared to a control sample (IC50) was determined.
In TABLE 1, a value of “+” indicates an IC50 of 10 μM or less in the specified assay; a value of “−” indicates an IC50 of greater than 10 μM in the specified assay.
(Immunoblotting shows a protein as a band on a membrane.)

The subject of data set [2] is HCV replicon (5-2 Luc replicon-comprising cells). The experiment in a line: HCV replicon assay (luciferase). The data set is classed as cell-based, Hepatitis C virus. The note with it: 5-2 Luc replicon cells, luciferase readout, read-out: Replicon IC50. A digest of the protocol:
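Readout: IC50 from a 50% drop in luciferase signal (Bright-Glo, luminometer), scored + (≤10 μM) or − (>10 μM). Compounds added at various concentrations to 5-2 Luc replicon cells (Huh7 background), pre-incubated 24 h, then incubated 24 h more before reading.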

Data set [3] can be described thus: Cytotoxicity assay (Cell Titer Glo). It is filed as cell-based. The note with it: human; 48 hr with compound, ATP-dependent Cell Titer Glo assay; read-out: IC50 in cytotoxicity assay (number of viable cells). The procedure: Compounds 67, 167, 169, 13, 1, 145, 29, 119, 63, 31, 39, 103, 123, 121, 97, 129, 79, 111, 85, 89, 109, 127, 131, 95, 47, 57, 69, 165, 161, 163, 3, 137, 15, 141, 41, 53, 33, 113, 93, 105, 77, 91, 81, 83, 35, 27, 65, 7, 135, 51, 139, 51, 49, 143, 5, 149, 11, 37, 21, 45, 61, 75, 23, 125, 73, 43, 171 and 101 were tested in a cytotoxicity assay with liver cells including an HCV replicon (5-2 Luc cells, 9–13 cells or Huh-7 cells). In the assay, cells were seeded onto 96-well plates (approx. 7500 cells/well in a volume of 90 μl) and grown for 24 hr at 37° C. On day 2, various concentrations of test compound (in a volume of 10 μl) were added to the wells and the cells were grown for an additional 48 hr at 37° C. On day 4, an ATP-dependent R-Luciferase assay (Cell Titer Glo assay) was performed to determine the number of viable cells.
A general note: ATP-based viability assays read luminescence as a measure of living cells.

Turning to `O=C(Nc1cccc(-c2cc(-c3c(N4CCOCC4)cccc3C(F)(F)F)no2)c1)C(Cl)Cl` [Compound 37, 2,2-Dichloro-N-[3-[3-[2-(N-morpholino)-6-trifluoromethylphenyl)-5-isoxazolyl]phenyl]Acetamide], the IC50 in data set [1] and in data set [2] was less than 10 µM in each case.

Consider `CCOc1cccc(Cl)c1-c1cc(-c2cccc(NC(=O)C(Cl)Cl)c2)on1` [Compound 708], for which the IC50 in data set [1] and in data set [2] was less than 10 µM each time.

For the molecule `COC(=O)c1cccc(Cl)c1-c1cc(-c2cccc(NC(=O)C(Cl)Cl)c2)on1` [Compound 680], the IC50 in data set [1] and in data set [2] was less than 10 µM each time.

On to `O=C(Nc1cccc(-c2cc(-c3c(Cl)cccc3OC(F)F)no2)c1)C(Cl)Cl` [Compound 710], for which the IC50 in data set [1] and in data set [2] was less than 10 µM throughout.

On to `CSc1cccc(F)c1-c1cc(-c2cccc(NC(=O)C(Cl)Cl)c2)on1` [Compound 11, 2,2-Dichloro-N-[3-[3-(2-fluoro-6-thiomethylphenyl)-5-isoxazolyl]phenyl]Acetamide], for which the IC50 in data set [1] and in data set [2] was less than 10 µM in each case.

In the case of `O=C(Nc1cccc(-c2cc(-c3c(Cl)cc(OCCN4CCOCC4)cc3Cl)no2)c1)C(Cl)Cl` [Compound 75, 2,2-Dichloro-N-[3-[3-[2,6-dichloro 4-(N-morpholinoethyleneoxy)phenyl]-5-isoxazolyl]-phenyl]Acetamide], the figures for the IC50 in data set [1] and in data set [2] were less than 10 µM and greater than 10 µM, respectively.

Take `O=C(Nc1cccc(-c2cc(-c3c(Cl)cccc3C(=O)N3CCN(c4ccccc4)CC3)no2)c1)C(Cl)Cl` [Compound 690]: the IC50 in data set [1] and in data set [2] was less than 10 µM throughout.

`Cc1oc(=O)oc1COC(=O)c1cccc(Cl)c1-c1cc(-c2cccc(NC(=O)C(Cl)Cl)c2)on1` [Compound 707]: the IC50 in data set [1] and in data set [2] was less than 10 µM each time.

With `CS(=O)(=O)NC1CCN(c2cccc(Cl)c2-c2cc(-c3cccc(NC(=O)C(Cl)Cl)c3)on2)C1` (stereo not shown) [Compound 682], the IC50 in data set [1] is less than 10 µM.

On to `CC(C)(C)OC(=O)N1CCN(C(=O)c2cccc(Cl)c2-c2cc(-c3cccc(NC(=O)C(Cl)Cl)c3)on2)CC1` [Compound 698], for which the IC50 is less than 10 µM in data set [1] and greater than 10 µM in data set [2].

As for `COc1cccc(C(=O)OC(C)(C)C)c1-c1cc(-c2cccc(NC(=O)C(Cl)Cl)c2)on1` [Compound 700], the IC50 in data set [1] was greater than 10 µM; in data set [2], less than 10 µM.

For `COC(=O)c1cccc(OC)c1-c1cc(-c2cccc(NC(=O)C(Cl)Cl)c2)on1` [Compound 704], the IC50 in data set [1] and in data set [2] was greater than 10 µM each time.

Regarding `O=C(Nc1cccc(-c2cc(-c3c(Cl)cccc3C(=O)N3CCN(Cc4ccccc4)CC3)no2)c1)C(Cl)Cl` [Compound 697], the IC50 in data set [1] was less than 10 µM; in data set [2], greater than 10 µM.

Consider `O=C(Nc1cccc(-c2cc(-c3c(Cl)cccc3C(=O)N3CCOCC3)no2)c1)C(Cl)Cl` [Compound 689], for which the 50% inhibitory concentration (IC50) in data set [1] is less than 10 µM.

For the molecule `Cc1ccc(C(=O)N2CCN(c3cccc(Cl)c3-c3cc(-c4cccc(NC(=O)C(Cl)Cl)c4)on3)CC2)cc1` [Compound 665], the IC50 in data set [1] and in data set [2] was less than 10 µM each time.

As to `O=C(Nc1cccc(-c2cc(-c3c(Cl)cccc3N3CCOCC3)no2)c1)C(Cl)Cl` [Compound 7, 2,2-Dichloro-N-[3-[3-[2-chloro-6-(N-morpholino)phenyl]-5-isoxazolyl]phenyl]Acetamide], the IC50 in data set [1] is less than 10 µM.

For the molecule `COC(=O)C(NC(=O)c1cccc(Cl)c1-c1cc(-c2cccc(NC(=O)C(Cl)Cl)c2)on1)C(C)C` (stereo not shown) [Compound 696], the IC50 in data set [1] and in data set [2] was less than 10 µM throughout.

For the molecule `CC(C)(C)OC(=O)NC1CCN(c2cccc(Cl)c2-c2cc(-c3cccc(NC(=O)C(Cl)Cl)c3)on2)C1` (stereo not shown) [Compound 671], the IC50 in data set [1] and in data set [2] was less than 10 µM each time.

`COC(=O)c1cccc(F)c1-c1cc(-c2cccc(NC(=O)C(Cl)Cl)c2)on1` [Compound 705]: the IC50 in data set [1] and in data set [2] was less than 10 µM throughout.

Take `COc1cccc(C(=O)O)c1-c1cc(-c2cccc(NC(=O)C(Cl)Cl)c2)on1` [Compound 702]: the IC50 in data set [1] was less than 10 µM; in data set [2], greater than 10 µM.

As for `CC(C)(C)OC(=O)c1cccc(F)c1-c1cc(-c2cccc(NC(=O)C(Cl)Cl)c2)on1` [Compound 701], the IC50 in data set [1] and in data set [2] was less than 10 µM each time.

In the case of `CN(C)C(=O)c1cccc(Cl)c1-c1cc(-c2cccc(NC(=O)C(Cl)Cl)c2)on1` [Compound 692], the IC50 in data set [1] and in data set [2] was less than 10 µM throughout.

For the molecule `O=C(NCc1ccccn1)c1cccc(Cl)c1-c1cc(-c2cccc(NC(=O)C(Cl)Cl)c2)on1` [Compound 694], the IC50 in data set [1] and in data set [2] was less than 10 µM throughout.

For `NC1CCN(c2cccc(Cl)c2-c2cc(-c3cccc(NC(=O)C(Cl)Cl)c3)on2)C1` (stereo not shown) [Compound 674], the IC50 in data set [1] and in data set [2] was less than 10 µM in each case.

With `CN(C)C(=O)NC1CCN(c2cccc(Cl)c2-c2cc(-c3cccc(NC(=O)C(Cl)Cl)c3)on2)C1` (stereo not shown) [Compound 676], the IC50 in data set [1] and in data set [2] was less than 10 µM each time.

As to `CC(C)Oc1cccc(Cl)c1-c1cc(-c2cccc(NC(=O)C(Cl)Cl)c2)on1` [Compound 706], the IC50 in data set [1] and in data set [2] was less than 10 µM each time.

For the molecule `NC1CCN(c2cccc(Cl)c2-c2cc(-c3cccc(NC(=O)C(Cl)Cl)c3)on2)C1` (stereo not shown) [Compound 673], the IC50 in data set [1] is less than 10 µM.

As to `Cc1cccc(Cl)c1-c1cc(-c2cccc(NC(=O)C(Cl)Cl)c2)on1` [Compound 31, 2,2-Dichloro-N-[3-[3-(2-chloro-6-methylphenyl)-5-isoxazolyl]phenyl]Acetamide], the IC50 in data set [2] (Hepatitis C virus) is less than 10 µM. For the same molecule, the IC50 at 48 h in data set [3] was greater than 10 µM.

For `O=C(Nc1cccc(-c2cc(-c3c(O)cccc3Cl)no2)c1)C(Cl)Cl` [Compound 83, 2,2-Dichloro-N-[3-[3-(2-chloro-6-hydroxyphenyl)-5-isoxazolyl]phenyl]Acetamide], the IC50 in data set [2] (Hepatitis C virus) was less than 10 µM. Further, the IC50 at 48 h in data set [3] was greater than 10 µM.

For `O=C(Nc1cccc(-c2cc(-c3c(C4CCCC4)cccc3C(F)(F)F)no2)c1)C(Cl)Cl` [Compound 105, 2,2-Dichloro-N-[3-[3-(2-cyclopentyl-6-trifluoromethylphenyl)-5-isoxazolyl]phenyl]Acetamide], in data set [2] (Hepatitis C virus), the half-maximal inhibitory concentration (IC50) was less than 10 µM. In addition, the IC50 at 48 h in data set [3] was greater than 5 µM.

With `CCOc1ccccc1-c1cc(-c2cccc(NC(=O)C(Cl)Cl)c2)on1` [Compound 61, 2,2-Dichloro-N-[3-[3-(2-ethoxyphenyl)-5-isoxazolyl]phenyl]Acetamide], in data set [2] (Hepatitis C virus), the IC50 was less than 10 µM. Also, in data set [3], the IC50 at 48 h is greater than 10 µM.

Consider `Cc1ccc(F)c(-c2cc(-c3cccc(NC(=O)C(Cl)Cl)c3)on2)c1F` [Compound 149, 2,2-Dichloro-N-[3-[3-(2,6-difluoro-3-methylphenyl)-5-isoxazolyl]phenyl]Acetamide], for which the half-maximal inhibitory concentration (IC50) in data set [2] (Hepatitis C virus) is greater than 10 µM. The IC50 at 48 h in data set [3] is greater than 10 µM.

Consider `CN(C)C(=O)NC1CCN(c2cccc(Cl)c2-c2cc(-c3cccc(NC(=O)C(Cl)Cl)c3)on2)C1` (stereo not shown) [Compound 675], for which the IC50 in data set [1] is less than 10 µM.

The term IC50 denotes the point on the concentration scale where inhibition reaches its midpoint.
